{"source": "patent EP2727592A1", "about": "(Kücükgüzel, Sükriye Güniz, priority 2012, dated 2014)", "origin": "cited, not measured here", "key": {"[1]": {"conditions": "in vivo"}, "[2]": {"assay": "not given", "remark": "listed apart in the source"}}}
{"smiles": "CC(=O)Nc1ccc(O)cc1", "note": "[PAR, 4-hydroxyacetanilide]", "values": [{"measurement": "eliminated without transformation", "setting": "[1]", "value": 5, "unit": "%"}, {"measurement": "turns into N-acetyl-p-benzoquinonimine (NAPQI) with oxidation", "setting": "[1]", "value": 5, "unit": "%"}, {"measurement": "turns into glucuronide and sulphate conjugate", "setting": "[1]", "value": 90, "unit": "%"}, {"measurement": "time to reach the highest amount of plasma concentration", "setting": "customary dose orally", "value": 90, "unit": "min"}, {"measurement": "Elimination half life", "setting": "in vivo", "value": 3.3, "unit": "h"}, {"measurement": "Oral bioavailability", "setting": "oral", "value": "63 - 89%"}, {"measurement": "dose leading to nausea, vomiting, stomach ache, then liver failure and acute liver necrosis", "setting": "[2]; adults", "value": "more than 10 g"}, {"measurement": "paediatric toxic dose", "setting": "[2]; children", "value": 200, "unit": "mg/kg"}, {"measurement": "dose at which the fatality risk shall increase", "setting": "[2]; taken in one go", "value": "over 20 g"}]}
